Assay results published in US10639287B2, “Compounds for the treatment of mitochondrial diseases” (UNIVERSITE PARIS-SUD, priority 2014, dated 2020).

Columns and labels:
[1] = tested on: wild-type Mip1 or mutated Mip1G651S yeast protein; experiment: Amount of Mip1 proteins in mitochondria-enriched extracts (SDS/PAGE, western blot); assay type: cell-based, Saccharomyces cerevisiae; details: 32 μM vs DMSO
Procedure: The analysis of the effect of clofilium tosylate on the amount of wild-type or mutated Mip1 proteins was carried out on cell extracts enriched in mitochondria. In order to visualise the expression of the Mip1 and Mip1G651S proteins, the sequence encoding three HA epitopes was cloned in 3′ and in phase with the coding sequence of Mip1 and Mip1G651S.
The yeast cells were cultured in selective medium (SC-TRP, 2% ethanol) overnight. Then, the cells were seeded at an initial optical density (DO600) of 0.05 in 100 mL of YPE (1% Yeast Extract, 0.5% Bacto Peptone, 2% Ethanol) supplemented either by DMSO or by 32 μM clofilium tosylate at 28° C. with stirring until a DO600 between 3 and 4 was achieved. The cells were centrifuged at 3000 g for 5 min and washed with water. The isolation of the fraction enriched in mitochondria and protein extraction of this fraction were carried out according to the protocol described by Hoffman et al., 2009 (Hofmann, L., Saunier, R., Cossard, R., Esposito, M., Rinaldi, T. and Delahodde, A. (2009) A non-proteolytic proteasome activity controls organelle fission in yeast. J. Cell. Sci., 122, 3673-3682).
The protein extracts of the fractions enriched in mitochondria were analysed by SDS/PAGE gel electrophoresis (6% for the analysis of the proteins Mip1-HA and Mip1G651S-HA and 10% for the analysis of Cox2 mitochondrial proteins (encoded by mtDNA) and porin). […]

polg-1(ok1458Δ/+) strain = experiment: Non-toxic concentration (MIC) in nematode, larval development over 4 days, polg-1 mutated line; assay type: in vivo, Caenorhabditis elegans; details: 1 μM to 50 μM
Procedure: A series of NGM dishes containing clofilium tosylate at concentrations of 1 μM, 5 μM, 10 μM, 50 μM, 100 μM or 200 μM were prepared (three dishes for each concentration). Between 30 and 40 synchronised L1 larvae of the wild-type N2 BRISTOL line or mutated VC1224 line (polg-1(ok1458Δ/+)/mT1 II; +/mT1 [dpy-10(el28)] II), these being nematodes carrying a heterozygous deletion of 2149 bp in the sequence encoding the polg-1 gene, were deposited on each of these dishes.

[2] = tested on: complex I in neuronal cybrids derived from a MELAS patient (m.3243A>G tRNA^Leu mutation); experiment: Ratio of complex I/citrate synthase activities in MELAS neuronal cybrids; assay type: cell-based, human; details: 300 nM, 48 hours
Procedure: The mutant MELAS neuronal transmitochondrial line, which is the result of the fusion of the immortalised neuoroblastoma parental line SHSY-5Y with fibroblasts carrying the mutation m.3243A>G, was created in the laboratory of Prof. Procaccio.
Neuronal cybrid lines carrying the MELAS mutation and the parental control line were grown in sterile culture flasks and incubated at 37° C. with 5% CO2 in a medium composed of DMEM with 1.5 g/L glucose, 2 mM L-glutamine and supplemented with 10% foetal bovine serum as well as uridine (5 μg/ml) and pyruvate (10 μg/mL). […]
The MELAS neuronal cybrid line carrying the mutation seemingly in the homoplasmic state (i.e. reaching almost 100% MELAS mutation) and the SHSY-5Y parental control line were used for measurements of enzyme activities. […] These cell pellets were then analysed by spectrophotometry with measurement of the different mitochondrial biochemical activities, particularly the activity of citrate synthase and the activity of complex I of the respiratory chain. […]
The enzymatic activities were measured according to the protocol described in Medjda et al, 2009 (Medja F, Allouche S, Frachon P, Jardel C, Malgat M, Mousson de Camaret B, Slama A, Lunardi J, Mazat J P, Lombès A. Development and implementation of standardized respiratory chain spectrophotometric assays for clinical diagnosis. Mitochondrion. 2009 September; 9(5):331-9).

With CCCCCCC[N+](CC)(CC)CCCCc1ccc(Cl)cc1.Cc1ccc(S(=O)(=O)[O-])cc1 [clofilium tosylate] the “amount of wild-type Mip1 or mutated Mip1G651S yeast protein” value [1] was “increased”, the larval development (polg-1(ok1458Δ/+) strain) was “developed similarly” and the “activity of complex I (ratio complex I/citrate synthase)” value [2] was “increased”.
